Source: paper PMC11387175, “Model informed dose regimen optimizing in development of leritrelvir for the treatment of mild or moderate COVID-19” (Frontiers in Pharmacology, 2024)

Columns and labels:
Alpha variant = system: Alpha variant; parameters: method as in Chen et al., 2024; conditions: ref Chen et al., 2024, read-out: concentration for 90% of maximal effect (EC90); cited from earlier work
wild strain of COVID-19 = assay: Target concentration needed to achieve EC90; format: cell-based, SARS-CoV-2
wild-type strain = system: wild-type strain; parameters: method as in Chen et al., 2024; conditions: ref Chen et al., 2024, read-out: concentration for 90% of maximal effect (EC90); cited from earlier work
[1] = Phase I safety and tolerability in healthy subjects; format: in vivo, human; conditions: monotherapy or in combination with ritonavir
From the text: (§1) The data obtained from a phase I clinical trial assessing the safety, tolerability, pharmacokinetics, and impact of food on leritrelvir Pharmacokinetics in healthy adult subjects (NCT05829551) were utilized in the PopPK analysis. The trial was designed as a randomized, double-blind, placebo-controlled study involving escalating single and multiple doses. The study design is outlined in Figure 1. In the single-ascending dose (SAD) arm, participants received leritrelvir tablets alone or with 100 mg of RTV. In the multiple-ascending dose (MAD) arm, leritrelvir tablets were given alone or with 100 mg RTV twice-daily on Days 1–4, followed by a single dose on Day 5, or thrice-daily on Days 1–4, followed by a single dose on Day 5. In the food consumption study arm, leritrelvir tablets alone or with 100 mg RTV were administered once during each dosing period after an overnight fast of at least 10 h or following a standard meal (high-fat, high-calorie) on Day 1. Each dosing period included a single administration, totaling two administrations, with a minimum interval of 8 days between periods.

[2] = Population pharmacokinetic analysis of phase I plasma concentrations (SAD, MAD, food effect); format: in vivo, human
From the text: as §1
FIGURE 1 Overall study design diagram. The study comprised three distinct components: a single-ascending dose study (SAD), a food effect study, and a multiple-ascending dose study (MAD). The SAD portion of the study was divided into two parts: Part 1 involved a dose escalation study of single-agent administration of RAY1216 tablets (S-1, S-2, and S-3), while Part 2 focused on the combination of RAY1216 tablets with 100 mg RTV (S-1R, S-2R, and S-3R). It should be noted that the S-2R and S-3R groups were initially planned but were ultimately not conducted due to dose-undetermined factors. The food effect study (FE) entails the administration of single doses of RAY1216 tablets at 800 mg (FE-1) and in combination with RTV at 500 mg (FE-2) to groups of 12 subjects. Group A undergoes a fasting administration cycle followed by a postprandial administration cycle, while Group B experiences the reverse order of administration cycles. The two cycles consist of crossover administration with a washout period lasting a minimum of 8 days. The MAD involves the co-administration of RAY1216 tablets (300 mg, 500 mg, and 700 mg) with 100 mg RTV in a BID dosing regimen, with escalating doses administered over 5 consecutive days and solely in the morning on the 5th day. Furthermore, a 400 mg RAY1216 single-agent TID dosing regimen administered over 5 consecutive days with administration limited to the morning on the 5th day.
Leritrelvir PK data was analyzed utilizing nonlinear mixed-effects modeling (NONMEM) ([Lindstrom and Bates, 1990]) and implemented with NONMEM version 7.5 (ICON Development Solutions. Ellicott City, Maryland, USA). The estimation algorithm used was the first-order conditional estimation method with interaction (FOCEI) of interindividual variability and residual variability. Perl Speaks NONMEM (PsN) version 4.2 (Uppsala University, Sweden) ([Lindbom et al., 2004]; [Lindbom et al., 2005]) and R version 4.1.2 were used as tools for executing NONMEM and summarizing outcomes. The model evaluated the impact of age, weight, body mass index, gender, albumin, alanine aminotransferase, aspartate aminotransferase, alkaline phosphatase, serum creatinine, creatinine clearance rate, total bilirubin, gamma-glutamyl transpeptidase, food consumption, and concomitant medication on the pharmacokinetics of leritrelvir. The final PopPK model was determined through a stepwise forward addition (p < 0.01) and backward deletion (p < 0.001) approach. The specifics of the model development process are outlined in the Supplementary Material. Evaluation of the final PopPK model was conducted using goodness-of-fit plots, prediction-corrected visual predictive check (pcVPC) ([Bergstrand et al., 2011]), bootstrapping ([Ette, 1997]), and shrinkage assessments ([Savic and Karlsson, 2009]). […]

[3] = system: CYP1A2, CYP2B6, CYP2C8, CYP2C9, CYP2C19, and CYP2D6; assay: Metabolizing enzyme identification (in-house data); format: in vitro ADME
CYP3A = assay: Metabolizing enzyme identification (in-house data); format: in vitro ADME
Omicron BA.1 = system: Omicron BA.1; parameters: method as in Chen et al., 2024; conditions: ref Chen et al., 2024, read-out: concentration for 90% of maximal effect (EC90); cited from earlier work
Omicron BA.5 = system: Omicron BA.5; parameters: method as in Chen et al., 2024; conditions: ref Chen et al., 2024, read-out: concentration for 90% of maximal effect (EC90); cited from earlier work
SARS-CoV-2 [4] = system: SARS-CoV-2; parameters: method as in Zhan et al., 2024; conditions: ref Zhan et al., 2024, cited from earlier work
SARS-CoV-2 [5] = conditions: COVID-19 patients; 400 mg TID alone or 300 mg with 100 mg RTV BID; ref Wang et al., 2023; cited from earlier work
[6] = system: SARS-CoV-2 βCoV/KOR/KCDC03/2020 strain; parameters: method as in Chen et al., 2023; conditions: Vero cells, ref Chen et al., 2023, cited from earlier work
Beta variant = system: Beta variant; parameters: method as in Chen et al., 2024; conditions: ref Chen et al., 2024, read-out: concentration for 90% of maximal effect (EC90); cited from earlier work
Delta variant = system: Delta variant; parameters: method as in Chen et al., 2024; conditions: ref Chen et al., 2024, read-out: concentration for 90% of maximal effect (EC90); cited from earlier work

## O=C(NC1CCCC1)C(=O)[C@H](C[C@@H]1CCNC1=O)NC(=O)[C@@H]1[C@H]2CCC[C@H]2CN1C(=O)[C@@H](NC(=O)C(F)(F)F)C1CCCCC1 [leritrelvir]
Alpha variant
  EC90: 351 nM
Wild strain of COVID-19
  concentration needed to achieve EC90: 0.165 µg/mL
wild-type strain
  EC90: 228 nM
[1]
  Grade 3 or higher adverse events (AEs): No Grade 3 or higher adverse events (AEs) were reported
  changes in corrected QT (QTc) interval, pulse rate (PR) interval, heart rate, and blood pressure: no meaningful changes were observed
  dose-dependent adverse reactions: No dose-dependent adverse reactions were observed
  serious adverse events (SAEs): no serious adverse events (SAEs) occurred
[2]; 44.4/12.2
  ratio of estimated clearance of leritrelvir to leritrelvir combined with RTV: 3.64
[2]; Comb (with RTV)
  Absorption lag time, ALAG1: Bootstrapping Median (95% CI): 0.166 (0.131–0.185) hr
  Absorption lag time, ALAG1: Population model estimates (%RSE) [95% CI]: 0.166 h
  Absorption rate, Ka: Bootstrapping Median (95% CI): 0.170 (0.154–0.185) hr^-1
  Absorption rate, Ka: Population model estimates (%RSE) [95% CI]: 0.169 h⁻¹
  Clearance, CL: Bootstrapping Median (95% CI): 12.2 (10.7–14.0) L/h
  Clearance, CL: Population model estimates (%RSE) [95% CI]: 12.2 L/h
  Duration of zero order absorption, D1: Bootstrapping Median (95% CI): 0.0719 (0.0412–0.129) hr
  Duration of zero order absorption, D1: Population model estimates (%RSE) [95% CI]: 0.0684 h
  Intercompartment clearance between the central compartment and peripheral compartment, Q: Population model estimates (%RSE) [95% CI]: 0.611 L/h
  Volume distribution of peripheral compartment, Vc: Bootstrapping Median (95% CI): 9.90 (7.68–13.2) L
  Volume distribution of peripheral compartment, Vc: Population model estimates (%RSE) [95% CI]: 9.78 L
  Volume distribution of peripheral compartment, Vp: Bootstrapping Median (95% CI): 9.24 (6.93–12.8) L
  Volume distribution of peripheral compartment, Vp: Population model estimates (%RSE) [95% CI]: 9.30 L
[2]; Mono (leritrelvir alone)
  Absorption lag time, ALAG1: Bootstrapping Median (95% CI): 0.188 (0.164–0.2) hr
  Absorption lag time, ALAG1: Population model estimates (%RSE) [95% CI]: 0.189 h
  Absorption rate, Ka: Bootstrapping Median (95% CI): 0.292 (0.258–0.329) hr^-1
  Absorption rate, Ka: Population model estimates (%RSE) [95% CI]: 0.293 h⁻¹
  Clearance, CL: Bootstrapping Median (95% CI): 44.2 (39.0–50.7) L/h
  Clearance, CL: Population model estimates (%RSE) [95% CI]: 44.4 L/h
  Duration of zero order absorption, D1: Bootstrapping Median (95% CI): 0.078 (0.0359–0.171) hr
  Duration of zero order absorption, D1: Population model estimates (%RSE) [95% CI]: 0.0722 h
  Intercompartment clearance between the central compartment and peripheral compartment, Q: Population model estimates (%RSE) [95% CI]: 5.57 L/h
  Volume distribution of peripheral compartment, Vc: Bootstrapping Median (95% CI): 18.7 (14.3–25.3) L
  Volume distribution of peripheral compartment, Vc: Population model estimates (%RSE) [95% CI]: 18.9 L
  Volume distribution of peripheral compartment, Vp: Bootstrapping Median (95% CI): 58.2 (44.7–79.5) L
  Volume distribution of peripheral compartment, Vp: Population model estimates (%RSE) [95% CI]: 58.2 L
[2]; cell for OC2.CL (96 h) is empty below
  Occasion variability of CL after multiple dose for 12 h, OC1.CL: Bootstrapping Median (95% CI): 18.7 (10–29.3) %
[2]; cell for OC2.Vc (96 h) is empty below
  Occasion variability of Vc after multiple dose for 12 h, OC1.Vc: Bootstrapping Median (95% CI): 53.1 (34–82.5) %
[2]; fed subjects, 0-2 h post-dosing
  Proportional error of fed subjects within 2 h after dose: Bootstrapping Median (95% CI): 70.5 (56.4–80.7) %
[2]; fed vs fasted
  Impact of food consumption on D1, D1.FED: Bootstrapping Median (95% CI): 1.33 (1.22–1.49)
  Impact of food consumption on F1, F1.FED: Bootstrapping Median (95% CI): 1.50 (1.25–1.82)
  Impact of food consumption on Ka, Ka.FED: Bootstrapping Median (95% CI): 21.3 (10.8–41)
[2]; in vivo
  Inter-individual variability CL: Bootstrapping Median (95% CI): 29.9 (25.5–34.6) %
  Inter-individual variability D1: Bootstrapping Median (95% CI): 152 (114–189) %
  Inter-individual variability Ka: Bootstrapping Median (95% CI): 25.3 (20.7–29.4) %
  Inter-individual variability Vc: Bootstrapping Median (95% CI): 79.8 (64.7–93.4) %
  Inter-individual variability Vp: Bootstrapping Median (95% CI): 43.6 (31–52.5) %
  Residual variability, Proportional residual: Bootstrapping Median (95% CI): 24.2 (22.4–26.1) %
[2]; with RTV vs alone
  enhancement of exposure of leritrelvir by co-administration with RTV: approximately 4 fold
[3]
  involvement of other CYP isoforms in metabolism: minimal to no involvement
CYP3A
  role of CYP3A in metabolism: primary metabolizing enzyme
Omicron BA.1
  EC90: 208 nM
Omicron BA.5
  EC90: 363 nM
SARS-CoV-2 [4]; 400 mg TID, after a 3-day treatment period
  decrease in the SARS-CoV-2 viral load compared to the placebo: approximately tenfold
SARS-CoV-2 [4]; oral 400 mg TID for 5 days
  reduction in the time to sustained clinical recovery of all 11 COVID-19 symptoms compared to the placebo: 20.3 h
SARS-CoV-2 [5]
  duration of viral shedding: 166 h
  duration of viral shedding shorter than the placebo group: 4.2 days
[6]; read-out: 90% inhibitory concentration (IC90)
  IC90: 92 nM
[6]; read-out: half maximal inhibitory concentration (IC50)
  IC50: 36 nM
Beta variant
  EC90: 688 nM
Delta variant
  EC90: 254 nM
